Results as given in ChEMBL document CHEMBL1148426, “Essential structural features of acetogenins: role of hydroxy groups adjacent to the bis-THF rings” (Bioorg Med Chem Lett, 2004).

Columns and labels:
[1] = target: Mitochondrial complex I; NADH oxidoreductase (Bos taurus, UniProt P25708+P52505); assay: Inhibitory concentration needed to halve the control NADH oxidase activity in bovine heart submitochondrial particles (SMP); format: protein-complex assay
[2] = target: Mitochondrial complex I; NADH oxidoreductase (Bos taurus) (UniProt P25708+P52505); assay: Maximum inhibition (2 uM) halve the control NADH oxidase activity in bovine heart submitochondrial particles (SMP); format: protein-complex assay

Sequence of Mitochondrial complex I; NADH oxidoreductase (P25708 21-464 limits assumed, other chains not shown): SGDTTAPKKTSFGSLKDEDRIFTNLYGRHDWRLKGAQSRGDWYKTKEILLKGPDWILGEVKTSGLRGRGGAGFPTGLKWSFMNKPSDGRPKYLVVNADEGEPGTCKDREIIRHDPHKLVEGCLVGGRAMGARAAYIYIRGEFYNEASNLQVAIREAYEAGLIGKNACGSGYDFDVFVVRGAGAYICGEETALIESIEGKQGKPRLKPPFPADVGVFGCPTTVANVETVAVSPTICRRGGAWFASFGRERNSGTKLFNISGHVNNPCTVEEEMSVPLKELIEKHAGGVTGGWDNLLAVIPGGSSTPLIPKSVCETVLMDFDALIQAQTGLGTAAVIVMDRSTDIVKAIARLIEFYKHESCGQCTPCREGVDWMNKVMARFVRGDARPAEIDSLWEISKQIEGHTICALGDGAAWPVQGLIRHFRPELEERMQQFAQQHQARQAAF

CCCCCCCCCC[C@@H](O)[C@H]1CC[C@H]([C@H]2CC[C@H](CCCCCCCCCCCCCC3=C[C@H](C)OC3=O)O2)O1 showed an IC50 [1] of 2.7 nM.

With CCCCCCCCCC[C@@H](O)[C@H]1CC[C@H]([C@H]2CC[C@H]([C@H](O)CCCCCCCCCCCCC3=C[C@H](C)OC3=O)O2)O1 [ISODESAACETYLUVARICIN] the IC50 [1] was 0.75 nM.

With CCCCCCCCCCC[C@H]1CC[C@H]([C@H]2CC[C@H](CCCCCCCCCCCCCC3=C[C@H](C)OC3=O)O2)O1 the IC50 [1] was 85 nM and the inhibition [2] was 85%.

CCCCCCCCCCC[C@H]1CC[C@H]([C@H]2CC[C@H]([C@H](O)CCCCCCCCCCCCC3=C[C@H](C)OC3=O)O2)O1 showed an IC50 [1] of 3.1 nM.
